Laboratory results as given in the NIST ThermoML archive (doi:10.1016/j.jct.2005.10.011).
± gives the expanded uncertainty stated by the source.

Key:
[1] = isobaric coefficient of expansion; details: 298.15 K; 101.33 kPa; Liquid; vibrating tube densimeter
[2] = 298.15 K, 101.33 kPa, Liquid; for viscosity: Capillary tube (Ostwald / Ubbelohde) method
[3] = xn = mol fraction of the nth substance listed; details: 298.15 K, 101 kPa, Liquid

CCCCCCCCCC [decane]
Details | isobaric coefficient of expansion | mass density [kg/m3] | viscosity [mPa·s]
[1] | 0.00104 ± 2e-05 1/K | – | –
[2] | – | 726.29 ± 0.81 | 0.861 ± 0.008

CCCCCCCCCC [decane] + Cc1ccccc1
[3]
Details | mass density [kg/m3]
x2 = 0.0405 | 730.61 ± 0.8
x2 = 0.1975 | 740.67 ± 0.78
x2 = 0.2817 | 747.82 ± 0.77
x2 = 0.3619 | 755.75 ± 0.76
x2 = 0.4394 | 764.48 ± 0.75
x2 = 0.6 | 785.86 ± 0.72
x2 = 0.6811 | 798.34 ± 0.7
x2 = 0.7615 | 811.84 ± 0.68
x2 = 0.84 | 826.07 ± 0.66
x2 = 0.92 | 841.69 ± 0.64

CCCCCCC [heptane]
Details | isobaric coefficient of expansion | mass density [kg/m3] | viscosity [mPa·s]
[1] | 0.00124 ± 2e-05 1/K | – | –
[2] | – | 679.69 ± 0.89 | 0.395 ± 0.005

CCCCCC [hexane]
Details | isobaric coefficient of expansion | mass density [kg/m3] | viscosity [mPa·s]
[1] | 0.00138 ± 3e-05 1/K | – | –
[2] | – | 655.07 ± 0.93 | 0.295 ± 0.005

CCCCCC [hexane] + Cc1ccccc1
[3]
Details | mass density [kg/m3]
x2 = 0.0406 | 657.47 ± 0.92
x2 = 0.2028 | 690.93 ± 0.86
x2 = 0.2804 | 706.95 ± 0.84
x2 = 0.3596 | 723.29 ± 0.81
x2 = 0.4423 | 740.35 ± 0.79
x2 = 0.5997 | 772.81 ± 0.74
x2 = 0.6757 | 788.5 ± 0.71
x2 = 0.7597 | 805.83 ± 0.69
x2 = 0.8412 | 822.63 ± 0.67
x2 = 0.9199 | 838.87 ± 0.65

CCCCCCCCC [nonane]
Details | isobaric coefficient of expansion | mass density [kg/m3] | viscosity [mPa·s]
[1] | 0.00108 ± 2e-05 1/K | – | –
[2] | – | 714.01 ± 1.7 | 0.665 ± 0.009

CCCCCCCCC [nonane] + Cc1ccccc1
[3]
Details | mass density [kg/m3]
x2 = 0.0396 | 719.17 ± 1
x2 = 0.1938 | 731.3 ± 0.97
x2 = 0.2815 | 739.97 ± 0.94
x2 = 0.3621 | 749.08 ± 0.92
x2 = 0.4429 | 759.3 ± 0.89
x2 = 0.6 | 782.29 ± 0.82
x2 = 0.6627 | 792.62 ± 0.79
x2 = 0.7595 | 809.87 ± 0.75
x2 = 0.8399 | 825.37 ± 0.71
x2 = 0.9168 | 841.23 ± 0.67

CCCCCCCC [octane]
Details | isobaric coefficient of expansion | mass density [kg/m3] | viscosity [mPa·s]
[1] | 0.00115 ± 2e-05 1/K | – | –
[2] | – | 698.59 ± 1.7 | 0.514 ± 0.007

CCCCCCCC [octane] + Cc1ccccc1
[3]
Details | mass density [kg/m3]
x2 = 0.0398 | 692.41 ± 1
x2 = 0.1999 | 718.64 ± 0.98
x2 = 0.2791 | 731.62 ± 0.95
x2 = 0.3596 | 744.8 ± 0.92
x2 = 0.4416 | 758.23 ± 0.89
x2 = 0.6048 | 784.96 ± 0.82
x2 = 0.6825 | 797.69 ± 0.78
x2 = 0.7593 | 810.27 ± 0.75
x2 = 0.8463 | 824.52 ± 0.71
x2 = 0.9132 | 835.49 ± 0.67

CCCCC [pentane]
Details | isobaric coefficient of expansion | mass density [kg/m3] | viscosity [mPa·s]
[1] | 0.0016 ± 3e-05 1/K | – | –
[2] | – | 621.22 ± 0.99 | 0.216 ± 0.005

CCCCC [pentane] + Cc1ccccc1
[3]
Details | mass density [kg/m3]
x2 = 0.0415 | 629.87 ± 0.96
x2 = 0.2011 | 668.27 ± 0.9
x2 = 0.2799 | 687.21 ± 0.87
x2 = 0.3647 | 707.61 ± 0.84
x2 = 0.4341 | 724.3 ± 0.81
x2 = 0.6011 | 764.45 ± 0.75
x2 = 0.6821 | 783.95 ± 0.72
x2 = 0.7502 | 800.32 ± 0.7
x2 = 0.8213 | 817.43 ± 0.67
x2 = 0.9137 | 839.65 ± 0.65

Cc1ccccc1 [toluene]
Details | isobaric coefficient of expansion | mass density [kg/m3] | viscosity [mPa·s]
[1] | 0.00109 ± 2e-05 1/K | – | –
[2] | – | 862.19 ± 0.62 | 0.552 ± 0.006

Cc1ccccc1 [toluene] + CCCCCCC
[3]
Details | mass density [kg/m3]
x1 = 0.0398 | 678.24 ± 26
x1 = 0.1999 | 693.04 ± 25
x1 = 0.2791 | 721.62 ± 23
x1 = 0.3596 | 736.18 ± 22
x1 = 0.4416 | 764.46 ± 20
x1 = 0.6048 | 779.21 ± 19
x1 = 0.6825 | 793.71 ± 18
x1 = 0.7593 | 808.12 ± 18
x1 = 0.8463 | 823.09 ± 17
x1 = 0.9132 | 837.25 ± 16
